{
  "source": "ChEMBL document CHEMBL5096210",
  "about": "“Discovery of Betulinic Acid Derivatives as Potent Intestinal Farnesoid X Receptor Antagonists to Ameliorate Nonalcoholic Steatohepatitis” (J Med Chem, 2022)",
  "key": {"[1]": {"test": "Cytotoxicity against HEK293T cells cotransfected with pCMV-Script-hFXR/pGL4.11-hSHP-Luciferase incubated for 24 hrs in presence of GW4064 by celltiter-blue cell viability assay", "type": "toxicity, cell-based, HEK-293T", "conditions": "human"}, "[2]": {"molecular_target": "T1, Bile acid receptor (Mus musculus) (UniProt Q60641)", "T1 sequence (whole entry)": "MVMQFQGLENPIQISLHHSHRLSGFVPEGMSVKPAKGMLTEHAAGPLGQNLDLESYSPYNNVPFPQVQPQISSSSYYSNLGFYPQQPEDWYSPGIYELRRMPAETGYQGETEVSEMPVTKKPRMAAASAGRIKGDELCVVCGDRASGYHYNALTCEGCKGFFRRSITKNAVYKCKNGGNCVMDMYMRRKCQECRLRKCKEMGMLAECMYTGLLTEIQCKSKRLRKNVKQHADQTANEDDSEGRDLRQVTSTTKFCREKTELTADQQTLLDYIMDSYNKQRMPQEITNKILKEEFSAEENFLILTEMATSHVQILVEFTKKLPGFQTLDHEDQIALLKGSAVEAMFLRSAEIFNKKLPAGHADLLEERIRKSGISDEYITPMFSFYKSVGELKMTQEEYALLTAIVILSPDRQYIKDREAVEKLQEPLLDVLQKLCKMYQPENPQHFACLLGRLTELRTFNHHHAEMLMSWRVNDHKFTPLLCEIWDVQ", "test": "In vivo antagonist activity against FXR in mouse assessed as reduction in Fgf15 level in presence of CDCA", "type": "functional"}, "[3]": {"molecular_target": "T1, Bile acid receptor (Mus musculus)", "test": "In vivo antagonist activity against FXR in mouse assessed as reduction in Shp level in presence of GW4064", "type": "functional"}, "[4]": {"molecular_target": "T1, Bile acid receptor (Mus musculus)", "test": "In vivo antagonist activity against FXR in microbeta depleted mouse assessed as reduction in taurocholic acid induced Fgf15 mRNA expression in ileum at 10 mg/kg, po incubated for 2 to 48 hrs", "type": "functional, organism-based", "conditions": "time 2-48 hrs"}, "[5]": {"molecular_target": "T1, Bile acid receptor (Mus musculus)", "test": "In vivo antagonist activity against FXR in microbeta depleted mouse assessed as reduction in taurocholic acid induced FXR mRNA expression in hepatic signaling at 10 mg/kg, po incubated for 2 to 48 hrs", "type": "functional, organism-based", "conditions": "time 2-48 hrs"}, "[6]": {"test": "Drug distribution in C57BL6 mouse intestine at 10 mg/kg, po administered as single dose measured after 8 hrs", "type": "ADME, organism-based", "conditions": "in vivo"}, "[7]": {"test": "Drug metabolism in C57BL6 mouse serum assessed as ((1S,3aS,5aR,5bR,7aR,9R,11aR,11bR,13aR,13bR)-9-hydroxy-1-isopropyl-5a,5b,8,8,11a-pentamethylicosahydro-1H-cyclopenta[a]chrysene-3a-carbonyl)glycine formation at 10 mg/kg, po administered as single dose measured after 2 hrs", "type": "ADME, organism-based", "conditions": "in vivo"}, "[8]": {"test": "Drug metabolism in C57BL6 mouse Gall bladder assessed as ((1S,3aS,5aR,5bR,7aR,9R,11aR,11bR,13aR,13bR)-9-hydroxy-1-isopropyl-5a,5b,8,8,11a-pentamethylicosahydro-1H-cyclopenta[a]chrysene-3a-carbonyl)glycine formation at 10 mg/kg, po administered as single dose measured after 2 hrs", "type": "ADME, organism-based", "conditions": "in vivo"}, "Mus musculus [9]": {"system": "Mus musculus", "test": "Anti-NASH activity in GAN-induced […] mouse assessed as reduction in fat/lean index at 10 mg/kg, IG measured after 12 weeks", "type": "functional, organism-based"}, "Mus musculus [10]": {"system": "Mus musculus", "test": "Anti-NASH activity in GAN-induced […] mouse assessed as upregulation of […] expression in inguinal white adipose tissue at 10 mg/kg", "type": "functional, organism-based"}, "Mus musculus [11]": {"species": "Mus musculus", "test": "Anti-NASH activity in GAN diet-induced […] mouse assessed as reduction in Dgat2 level", "type": "functional, organism-based"}, "Mus musculus [12]": {"species": "Mus musculus", "test": "Anti-NASH activity in GAN diet-induced […] mouse assessed as reduction in ALT level", "type": "functional, organism-based"}, "Liver [13]": {"system": "Liver", "test": "Anti-NASH activity in GAN diet-induced […] mouse liver assessed as reduction in macrosteatosis by H and E staining based analysis", "type": "functional"}, "Liver [14]": {"system": "Liver", "test": "Anti-NASH activity in GAN diet-induced […] mouse liver assessed as reduction in macrosteatosis by Sirius red staining based analysis", "type": "functional"}, "Liver [15]": {"system": "Liver", "test": "Anti-NASH activity in GAN diet-induced […] mouse liver assessed as reduction in hepatocyte ballooning by Sirius red staining based analysis", "type": "functional, cell-based"}, "Liver [16]": {"system": "Liver", "test": "Anti-NASH activity in GAN diet-induced […] mouse liver assessed as reduction in hepatocyte collagen deposition by Sirius red staining based analysis", "type": "functional, cell-based"}, "Liver [17]": {"system": "Liver", "test": "Anti-NASH activity in GAN diet-induced […] mouse liver assessed as reduced NAFLD activity score", "type": "functional"}, "Mus musculus [18]": {"species": "Mus musculus", "test": "Anti-NASH activity in GAN diet-induced […] mouse assessed as reduction in Fabp3 mRNA expression level", "type": "functional, organism-based"}, "Mus musculus [19]": {"species": "Mus musculus", "test": "Anti-NASH activity in GAN diet-induced […] mouse assessed as downregulation of P-ycard level", "type": "functional, organism-based"}, "Mus musculus [20]": {"species": "Mus musculus", "test": "Anti-NASH activity in GAN diet-induced […] mouse assessed as reduction in Tgf-beta level", "type": "functional, organism-based"}, "Mus musculus [21]": {"species": "Mus musculus", "test": "Anti-NASH activity in GAN diet-induced […] mouse assessed as reduction in Col3a1 level", "type": "functional, organism-based"}, "Mus musculus [22]": {"species": "Mus musculus", "test": "Anti-NASH activity in GAN diet-induced […] mouse assessed as suppression of FXR expression", "type": "functional, organism-based"}, "Mus musculus [23]": {"species": "Mus musculus", "test": "Anti-NASH activity in GAN diet-induced […] mouse assessed as suppression of Shp expression", "type": "functional, organism-based"}, "Mus musculus [24]": {"species": "Mus musculus", "test": "Anti-NASH activity in GAN diet-induced […] mouse assessed as suppression of Fgf15 expression", "type": "functional, organism-based"}, "Mus musculus [25]": {"species": "Mus musculus", "test": "Anti-NASH activity in GAN diet-induced […] mouse assessed as upregulation CYP7A1 protein by Western blot analysis", "type": "functional, organism-based"}, "Mus musculus [26]": {"species": "Mus musculus", "test": "Anti-NASH activity in GAN diet-induced […] mouse assessed as increase in Bsep mRNA level", "type": "functional, organism-based"}, "Mus musculus [27]": {"system": "Mus musculus", "test": "Anti-NASH activity in GAN diet-induced […] mouse assessed as reduction of dihydroceramide level in serum administered orally for 12 weeks", "type": "functional, organism-based", "conditions": "route po"}, "Mus musculus [28]": {"system": "Mus musculus", "test": "Anti-NASH activity in HFMCD diet-induced […] mouse assessed as reduction in hepatic hydroxyproline level at 30 mg/kg, po for 4 weeks", "type": "functional, organism-based"}, "Mus musculus [29]": {"species": "Mus musculus", "test": "Anti-NASH activity in GAN diet-induced […] mouse assessed as increase in hepatic bile acid synthesis", "type": "functional, organism-based"}, "Mus musculus [30]": {"species": "Mus musculus", "test": "Anti-NASH activity in GAN diet-induced […] mouse assessed as reduction of bile acid pool size in ileum", "type": "functional, organism-based"}, "Mus musculus [31]": {"species": "Mus musculus", "test": "Anti-NASH activity in GAN diet-induced […] mouse assessed as bile acid level in serum", "type": "functional, organism-based"}},
  "note": "Active and inactive are the calls of the source. No cut-off for these calls is given here.",
  "data": [
    {"compound": "CCCC(=O)O[C@@H]1CC[C@]2(C)[C@H]3CC[C@@H]4[C@H]5[C@H](C(C)C)CC[C@]5(C(=O)NCC(=O)O)CC[C@@]4(C)[C@]3(C)CC[C@H]2C1(C)C", "values": [
      {"measurement": "IC50 at 24 h", "setting": "[1]", "value": "> 100", "unit": "µM"},
      {"measurement": "Activity", "setting": "[2]", "value": "Active"},
      {"measurement": "Activity", "setting": "[3]", "value": "Active"},
      {"measurement": "Activity", "setting": "[4]", "value": "Active"},
      {"measurement": "Activity", "setting": "[5]", "value": "Active"},
      {"measurement": "Drug uptake", "setting": "[6]", "value": "Active"},
      {"measurement": "Drug metabolism", "setting": "[7]", "value": "Metabolite_Detected"},
      {"measurement": "Drug metabolism", "setting": "[8]", "value": "Metabolite_Detected"},
      {"measurement": "Activity", "setting": "Mus musculus [9]", "value": "Active"},
      {"measurement": "Activity", "setting": "Mus musculus [10]", "value": "Active"},
      {"measurement": "Activity", "setting": "Mus musculus [11]", "value": "Active"},
      {"measurement": "Activity", "setting": "Mus musculus [12]", "value": "Active"},
      {"measurement": "Activity", "setting": "Liver [13]", "value": "Active"},
      {"measurement": "Activity", "setting": "Liver [14]", "value": "Active"},
      {"measurement": "Activity", "setting": "Liver [15]", "value": "Active"},
      {"measurement": "Activity", "setting": "Liver [16]", "value": "Active"},
      {"measurement": "Activity", "setting": "Liver [17]", "value": "Active"},
      {"measurement": "Activity", "setting": "Mus musculus [18]", "value": "Active"},
      {"measurement": "Activity", "setting": "Mus musculus [19]", "value": "Active"},
      {"measurement": "Activity", "setting": "Mus musculus [20]", "value": "Active"},
      {"measurement": "Activity", "setting": "Mus musculus [21]", "value": "Active"},
      {"measurement": "Activity", "setting": "Mus musculus [22]", "value": "Active"},
      {"measurement": "Activity", "setting": "Mus musculus [23]", "value": "Active"},
      {"measurement": "Activity", "setting": "Mus musculus [24]", "value": "Active"},
      {"measurement": "Activity", "setting": "Mus musculus [25]", "value": "Active"},
      {"measurement": "Activity", "setting": "Mus musculus [26]", "value": "Active"},
      {"measurement": "Activity", "setting": "Mus musculus [27]", "value": "Active"},
      {"measurement": "Activity", "setting": "Mus musculus [28]", "value": "Active"},
      {"measurement": "Activity", "setting": "Mus musculus [29]", "value": "Active"},
      {"measurement": "Activity", "setting": "Mus musculus [30]", "value": "Active"},
      {"measurement": "Activity", "setting": "Mus musculus [31]", "value": "Active"}
    ]}
  ]
}
